# According to paper PMC7177216, “A Novel Highly Sensitive Method for Measuring Inflammatory Neural-Derived APC Activity in Glial Cell Lines, Mouse Brain and Human CSF” (International Journal of Molecular Sciences, 2020):
# How the values were obtained:
# bovine FXa = target: T1, bovine FXa (Bos taurus, UniProt P00743); conditions: 1 µM inhibitor; 20 µM substrate; 1 mM CaCl2, 50 mM Tris-HCl pH 8.0; 37 °C
# T1 construct: gene F10
# Bovine thrombin = target: T2, Bovine thrombin (Bos taurus, UniProt P00735); conditions: 1 µM inhibitor; 20 µM substrate; 1 mM CaCl2, 50 mM Tris-HCl pH 8.0; 37 °C
# T2 construct: gene F2
# T1 sequence (P00743 41-180): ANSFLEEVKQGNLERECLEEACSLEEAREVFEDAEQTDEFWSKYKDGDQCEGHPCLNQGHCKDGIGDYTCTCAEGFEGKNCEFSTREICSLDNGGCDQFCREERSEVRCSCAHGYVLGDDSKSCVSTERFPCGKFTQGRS
# T1 sequence (P00743 234-492): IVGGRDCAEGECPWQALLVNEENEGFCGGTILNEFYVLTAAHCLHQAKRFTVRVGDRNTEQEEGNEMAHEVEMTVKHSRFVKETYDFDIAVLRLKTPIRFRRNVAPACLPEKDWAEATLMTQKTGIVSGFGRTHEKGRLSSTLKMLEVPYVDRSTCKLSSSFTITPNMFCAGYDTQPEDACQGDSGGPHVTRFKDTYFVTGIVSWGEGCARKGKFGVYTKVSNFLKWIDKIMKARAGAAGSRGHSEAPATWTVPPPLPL
smiles,measurement,setting,value
N=C(N)c1ccc(CC(NC(=O)CNS(=O)(=O)c2ccc3ccccc3c2)C(=O)N2CCCCC2)cc1 (centres unmarked) [NAPAP],inhibition of cleavage of Pyr-Pro-Arg-AMC (fluorescence),bovine FXa,FXa activity was fully blocked by apixaban and partially blocked by NAPAP
same,inhibition of cleavage of Pyr-Pro-Arg-AMC (fluorescence),Bovine thrombin,cleavage of the substrate by thrombin was fully blocked by NAPAP
